Experiments:
[1] = molecular target: T1, GCK (Homo sapiens, UniProt Q12851); assay: GCK kinase inhibitory activity; type: biochemical; conditions: read-out: Kinase inhibitory efficacy, GI50 GCK
T1 sequence (Q12851 1-820): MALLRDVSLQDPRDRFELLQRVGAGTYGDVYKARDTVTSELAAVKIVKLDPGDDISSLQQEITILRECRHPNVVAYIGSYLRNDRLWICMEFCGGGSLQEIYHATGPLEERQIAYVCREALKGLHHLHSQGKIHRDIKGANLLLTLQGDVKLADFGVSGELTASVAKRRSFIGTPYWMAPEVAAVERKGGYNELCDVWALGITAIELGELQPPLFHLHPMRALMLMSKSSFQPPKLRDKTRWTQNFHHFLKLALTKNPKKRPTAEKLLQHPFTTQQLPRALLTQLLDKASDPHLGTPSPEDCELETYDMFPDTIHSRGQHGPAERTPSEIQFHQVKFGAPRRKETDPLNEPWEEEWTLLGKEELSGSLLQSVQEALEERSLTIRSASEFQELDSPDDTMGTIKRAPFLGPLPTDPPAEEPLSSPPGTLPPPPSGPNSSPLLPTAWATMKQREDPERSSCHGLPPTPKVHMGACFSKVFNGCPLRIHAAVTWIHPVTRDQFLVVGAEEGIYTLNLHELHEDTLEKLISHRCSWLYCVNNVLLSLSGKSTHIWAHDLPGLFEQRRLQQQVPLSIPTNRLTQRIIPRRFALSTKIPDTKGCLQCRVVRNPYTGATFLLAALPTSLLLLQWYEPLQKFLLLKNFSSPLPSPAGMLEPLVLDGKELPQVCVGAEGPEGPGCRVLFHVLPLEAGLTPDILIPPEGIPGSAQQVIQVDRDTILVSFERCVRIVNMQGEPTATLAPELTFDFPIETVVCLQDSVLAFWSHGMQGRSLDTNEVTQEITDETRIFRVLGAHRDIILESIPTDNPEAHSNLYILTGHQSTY
Procedure: (§1) GI50 values were calculated by measuring the inhibitory efficacy of the compounds of the present invention against both GCK and ACK1 kinases.

[2] = molecular target: ACK1 (Homo sapiens, UniProt Q07912); assay: ACK1 kinase inhibitory activity; type: biochemical; conditions: read-out: Kinase inhibitory efficacy, GI50 ACK1
Procedure: as §1

[3] = system: OCI-AML3 (N-Ras Q61L); assay: Proliferation inhibitory activity, OCI-AML3; type: cell-based; conditions: Homo sapiens, OCI-AML-3; OCI-AML3 (N-Ras Q61L) cell line; read-out: Proliferation inhibitory efficacy (GI50, μM) OCI-AML3 (N-Ras Q61L)
Procedure: (§2) GI50 values were calculated by measuring the proliferation inhibitory efficacy of the compounds of the present invention on mt-NRAS (G12D) Ba/F3, U937 (wt-NRAS) and OCI-AML3 (mt-NRAS) cell lines.
Accordingly, the compounds of the present invention are particularly effective as a therapeutic agent for acute myelogenous leukemia (AML).

[4] = system: U937 (N-Ras WT); assay: Proliferation inhibitory activity, U937; type: cell-based; conditions: Homo sapiens, U-937; U937 (N-Ras WT) cell line; read-out: Proliferation inhibitory efficacy (GI50, μM) U937 (N-Ras WT)
Procedure: as §2

[5] = system: Ba/F3 (N-Ras G12D); assay: Proliferation inhibitory activity, Ba/F3; type: cell-based; conditions: Mus musculus, BaF3; Ba/F3 (N-Ras G12D) cell line; read-out: Proliferation inhibitory efficacy (GI50, μM) Ba/F3 (N-Ras G12D)
Procedure: as §2

Sequence of ACK1 (Q07912 whole entry): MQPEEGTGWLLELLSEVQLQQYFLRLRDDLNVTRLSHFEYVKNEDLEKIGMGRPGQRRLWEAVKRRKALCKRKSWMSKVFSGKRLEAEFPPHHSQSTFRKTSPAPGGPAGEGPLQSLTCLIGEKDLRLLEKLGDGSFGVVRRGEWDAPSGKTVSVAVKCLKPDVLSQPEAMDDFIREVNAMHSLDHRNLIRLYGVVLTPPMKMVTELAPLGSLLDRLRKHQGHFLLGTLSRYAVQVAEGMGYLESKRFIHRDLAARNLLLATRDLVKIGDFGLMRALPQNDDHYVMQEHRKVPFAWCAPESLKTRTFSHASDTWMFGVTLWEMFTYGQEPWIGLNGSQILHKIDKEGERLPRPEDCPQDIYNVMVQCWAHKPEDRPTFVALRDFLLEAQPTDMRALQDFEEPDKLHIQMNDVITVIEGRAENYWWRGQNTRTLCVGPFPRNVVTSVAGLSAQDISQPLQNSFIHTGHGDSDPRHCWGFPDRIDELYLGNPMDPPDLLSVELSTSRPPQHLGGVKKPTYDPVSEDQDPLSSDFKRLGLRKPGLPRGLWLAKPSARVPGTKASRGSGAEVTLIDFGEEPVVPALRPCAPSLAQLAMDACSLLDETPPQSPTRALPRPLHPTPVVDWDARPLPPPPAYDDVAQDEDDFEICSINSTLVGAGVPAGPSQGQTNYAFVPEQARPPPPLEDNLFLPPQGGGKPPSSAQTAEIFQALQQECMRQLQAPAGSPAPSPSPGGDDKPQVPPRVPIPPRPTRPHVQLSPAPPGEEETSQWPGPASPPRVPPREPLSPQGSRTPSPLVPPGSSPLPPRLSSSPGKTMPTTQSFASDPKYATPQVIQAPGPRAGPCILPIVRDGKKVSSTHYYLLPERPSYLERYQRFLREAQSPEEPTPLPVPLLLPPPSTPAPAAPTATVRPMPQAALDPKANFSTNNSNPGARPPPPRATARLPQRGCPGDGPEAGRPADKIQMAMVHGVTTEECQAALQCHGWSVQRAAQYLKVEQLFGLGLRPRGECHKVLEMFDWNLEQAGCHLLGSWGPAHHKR

`Cc1ccc(Nc2ncc3c(n2)N(C)C(=O)N(c2cc(NC(=O)Nc4ccccc4C)ccc2C)C3)cn1` [Compound No. 5, 1-(4-methyl-3-(1-methyl-7-((6-methylpyridin-3-yl)amino)-2-oxo-1,4-dihydropyrimido[4,5-d]pyrimidin-3(2H)-yl)phenyl)-3-(o-tolyl)urea] showed a GI50 [1] of 100 to 300 nM, a GI50 [2] of under 30 nM and a GI50 [3] of 0.5 to 3 µM. It also gave a GI50 [4] of at least 5 µM and a GI50 [5] of 0.5 to 3 µM.
For `COc1ccccc1NC(=O)Nc1ccc(C)c(N2Cc3cnc(Nc4ccc(C)nc4)nc3N(C)C2=O)c1` [Compound No. 1, 1-(2-methoxyphenyl)-3-(4-methyl-3-(1-methyl-7-((6-methylpyridin-3-yl)amino)-2-oxo-1,4-dihydropyrimido[4,5-d]pyrimidin-3(2H)-yl)phenyl)urea], the GI50 [1] was 30 to 100 nM, the GI50 [2] was under 30 nM and the GI50 [3] was under 0.5 µM. The GI50 [4] was at least 5 µM and the GI50 [5] was under 0.5 µM.
In the case of `Cc1ccc(Nc2ncc3c(n2)N(C)C(=O)N(c2cc(NC(=O)Nc4ccccc4C(F)(F)F)ccc2C)C3)cn1` [Compound No. 4, 1-(4-methyl-3-(1-methyl-7-((6-methylpyridin-3-yl)amino)-2-oxo-1,4-dihydropyrimido[4,5-d]pyrimidin-3(2H)-yl)phenyl)-3-(2-(trifluoromethyl)phenyl)urea], the GI50 [1] is reported as at least 300 nM, the GI50 [2] is reported as under 30 nM and the GI50 [3] is reported as under 0.5 µM. The GI50 [4] was at least 5 µM and the GI50 [5] was 0.5 to 3 µM.
Work on `Cc1ccc(Nc2ncc3c(n2)N(C)C(=O)N(c2cc(NC(=O)Nc4cccc(Cl)c4Cl)ccc2C)C3)cn1` [Compound No. 6, 1-(2,3-dichlorophenyl)-3-(4-methyl-3-(1-methyl-7-((6-methylpyridin-3-yl)amino)-2-oxo-1,4-dihydropyrimido[4,5-d]pyrimidin-3(2H)-yl)phenyl)urea] yielded a GI50 [1] of 100 to 300 nM, a GI50 [2] of under 30 nM and a GI50 [3] of under 0.5 µM. For the same molecule, the GI50 [4] was at least 5 µM and the GI50 [5] was 0.5 to 3 µM.
In the case of `COc1cccc(NC(=O)Nc2ccc(C)c(N3Cc4cnc(Nc5ccc(C)nc5)nc4N(C)C3=O)c2)c1` [Compound No. 8, 1-(3-methoxyphenyl)-3-(4-methyl-3-(1-methyl-7-((6-methylpyridin-3-yl)amino)-2-oxo-1,4-dihydropyrimido[4,5-d]pyrimidin-3(2H)-yl)phenyl)urea], the GI50 [1] is reported as 30 to 100 nM, the GI50 [2] is reported as under 30 nM and the GI50 [3] is reported as 0.5 to 3 µM. It also gave a GI50 [4] of at least 5 µM and a GI50 [5] of under 0.5 µM.
`CCN1CCN(c2ccc(Nc3ncc4c(n3)N(C)C(=O)N(c3cc(NC(=O)Nc5ccccc5OC)ccc3C)C4)cn2)CC1` [Compound No. 17, 1-(3-(7-((6-(4-ethylpiperazin-1-yl)pyridin-3-yl)amino)-1-methyl-2-oxo-1,4-dihydropyrimido[4,5-d]pyrimidin-3(2H)-yl)-4-methylphenyl)-3-(2-methoxyphenyl)urea] showed a GI50 [1] of under 30 nM, a GI50 [2] of under 30 nM and a GI50 [3] of under 0.5 µM. It also gave a GI50 [4] of 0.5 to 3 µM and a GI50 [5] of under 0.5 µM.
In the case of `CNC(=O)c1ccc(Nc2ncc3c(n2)N(C)C(=O)N(c2cc(NC(=O)Nc4ccccc4OC)ccc2C)C3)cn1` [Compound No. 15], the GI50 [1] is reported as 100 to 300 nM, the GI50 [2] is reported as under 30 nM and the GI50 [3] is reported as under 0.5 µM. The GI50 [4] was at least 5 µM and the GI50 [5] was under 0.5 µM.
With `Cc1ccc(Nc2ncc3c(n2)N(C)C(=O)N(c2cc(NC(=O)Nc4ccccc4)ccc2C)C3)cn1` [Compound No. 2, 1-(4-methyl-3-(1-methyl-7-((6-methylpyridin-3-yl)amino)-2-oxo-1,4-dihydropyrimido[4,5-d]pyrimidin-3(2H)-yl)phenyl)-3-phenylurea] the GI50 [1] was 100 to 300 nM, the GI50 [2] was under 30 nM and the GI50 [3] was 0.5 to 3 µM. For the same molecule, the GI50 [4] was at least 5 µM and the GI50 [5] was 0.5 to 3 µM.
For `COc1ccccc1NC(=O)Nc1ccc(C)c(N2Cc3cnc(Nc4ccc(N5CCN(C(C)=O)CC5)nc4)nc3N(C)C2=O)c1` [Compound No. 13, 1-(3-(7-((6-(4-acetylpiperazin-1-yl)pyridin-3-yl)amino)-1-methyl-2-oxo-1,4-dihydropyrimido[4,5-d]pyrimidin-3(2H)-yl)-4-methylphenyl)-3-(2-methoxyphenyl)urea], the GI50 [1] was under 30 nM, the GI50 [2] was under 30 nM and the GI50 [3] was under 0.5 µM. It also gave a GI50 [4] of at least 5 µM and a GI50 [5] of under 0.5 µM.
In the case of `CCN1CCN(c2ccc(Nc3ncc4c(n3)N(C)C(=O)N(c3cc(NC(=O)Nc5ccccc5OC)ccc3C)C4)cc2)CC1` [Compound No. 11, 1-(3-(7-((4-(4-ethylpiperazin-1-yl)phenyl)amino)-1-methyl-2-oxo-1,4-dihydropyrimido[4,5-d]pyrimidin-3(2H)-yl)-4-methylphenyl)-3-(2-methoxyphenyl)urea], the GI50 [1] is reported as under 30 nM, the GI50 [2] is reported as under 30 nM and the GI50 [3] is reported as under 0.5 µM. The GI50 [4] was 0.5 to 3 µM and the GI50 [5] was under 0.5 µM.
`COc1ccccc1NC(=O)Nc1ccc(C)c(N2Cc3cnc(Nc4cnn(C)c4)nc3N(C)C2=O)c1` [Compound No. 12, 1-(2-methoxyphenyl)-3-(4-methyl-3-(1-methyl-7-((1-methy-1H-pyrazol-4-yl)amino)-2-oxo-1,4-dihydropyrimido[4,5-d]pyrimidin-3(2H)-yl)phenyl)urea] gave a GI50 [1] of under 30 nM, a GI50 [2] of under 30 nM and a GI50 [3] of under 0.5 µM. The GI50 [4] was at least 5 µM and the GI50 [5] was under 0.5 µM.
`COc1ccc(NC(=O)Nc2ccc(C)c(N3Cc4cnc(Nc5ccc(C)nc5)nc4N(C)C3=O)c2)cc1` [Compound No. 10, 1-(4-methoxyphenyl)-3-(4-methyl-3-(1-methyl-7-((6-methylpyridin-3-yl)amino)-2-oxo-1,4-dihydropyrimido[4,5-d]pyrimidin-3(2H)-yl)phenyl)urea] gave a GI50 [1] of 30 to 100 nM, a GI50 [2] of 30 to 100 nM and a GI50 [3] of under 0.5 µM. It also gave a GI50 [4] of at least 5 µM and a GI50 [5] of under 0.5 µM.
Molecule `Cc1ccc(Nc2ncc3c(n2)N(C)C(=O)N(c2cc(NC(=O)Nc4cccc(C(F)(F)F)c4)ccc2C)C3)cn1` [Compound No. 7, 1-(4-methyl-3-(1-methyl-7-((6-methylpyridin-3-yl)amino)-2-oxo-1,4-dihydropyrimido[4,5-d]pyrimidin-3(2H)-yl)phenyl)-3-(3-(trifluoromethyl)phenyl)urea] has a GI50 [1] of 100 to 300 nM, a GI50 [2] of under 30 nM and a GI50 [3] of 0.5 to 3 µM. The GI50 [4] was at least 5 µM and the GI50 [5] was under 0.5 µM.
For `Cc1ccc(Nc2ncc3c(n2)N(C)C(=O)N(c2cc(NC(=O)Nc4ccc(Cl)c(C(F)(F)F)c4)ccc2C)C3)cn1` [Compound No. 9, 1-(4-chloro-3-(trifluoromethyl)phenyl)-3-(4-methyl-3-(1-methyl-7-((6-methylpyridin-3-yl)amino)-2-oxo-1,4-dihydropyrimido[4,5-d]pyrimidin-3(2H)-yl)phenyl)urea], the GI50 [1] was 100 to 300 nM, the GI50 [2] was 30 to 100 nM and the GI50 [3] was under 0.5 µM. The GI50 [4] was at least 5 µM and the GI50 [5] was 0.5 to 3 µM.
`Cc1ccc(Nc2ncc3c(n2)N(C)C(=O)N(c2cc(NC(=O)Nc4ccccc4OC(F)(F)F)ccc2C)C3)cn1` [Compound No. 3, 1-(4-methyl-3-(1-methyl-7-((6-methylpyridin-3-yl)amino)-2-oxo-1,4-dihydropyrimido[4,5-d]pyrimidin-3(2H)-yl)phenyl)-3-(2-(trifluoromethoxy)phenyl)urea] was tested, and the GI50 [1] was at least 300 nM, the GI50 [2] was under 30 nM and the GI50 [3] was 0.5 to 3 µM. The GI50 [4] was at least 5 µM and the GI50 [5] was 3 to 5 µM.
Work on `COc1ccccc1NC(=O)Nc1ccc(C)c(N2Cc3cnc(Nc4ccc(C(=O)NC5CC5)nc4)nc3N(C)C2=O)c1` [Compound No. 16, N-cyclopropyl-5-((6-(5-(3-(2-methoxyphenyl)ureido)-2-methylphenyl)-8-methyl-7-oxo-5,6,7,8-tetrahydropyrimido[4,5-d]pyrimidin-2-yl)amino)picolinamide] yielded a GI50 [1] of 100 to 300 nM, a GI50 [2] of under 30 nM and a GI50 [3] of under 0.5 µM. It also gave a GI50 [4] of at least 5 µM and a GI50 [5] of under 0.5 µM.

Source: patent publication US10059717B2, “Urea compounds containing 3,4-dihydropyrimido[4,5-D]pyrimidin-2(1H)-one skeleton as protein kinase inhibitors” (KOREA INSTITUTE OF SCIENCE AND TECHNOLOGY, priority 2016, dated 2018)
